Test results taken from patent US9695200B2, “Heterocyclic ITK inhibitors for treating inflammation and cancer” (Confluence Life Sciences, Inc., priority 2015, dated 2017).

Assays:
ITK = ITK (Homo sapiens (Human), UniProt Q08881); experiment: ITK inhibitor binding potency (LanthaScreen competitive binding assay); conditions: TR-FRET tracer-236 displacement, 10 nM ITK; pre-incubation condition not given; read-out: ITK Inhibition IC50
Description: The ability of candidate compounds to interact with ITK is quantitated by a competitive binding assay using the LanthaScreen technology developed by Life Technologies. This assay is based on the binding of a proprietary, Alexa Fluor® 647-labeled, ATP-competitive kinase inhibitor (kinase tracer-236) to the ITK expression construct in the presence of a Europium-conjugated antibody, resulting in a FRET (fluorescence resonance energy transfer) signal. Displacement of the kinase tracer by compound results in a lower emission ratio upon excitation of the Europium chelate. Candidate compounds are designed as potential irreversible inhibitors of ITK, capable of ligating to an active site cysteine residue resulting in time dependent covalent binding. The time dependent nature of irreversible inhibition is investigated by performing the binding assay with and without a pre-incubation of compound and ITK. […] The inhibitory potency of candidate compounds is measured in 20 mM HEPES pH 7.5, 10 mM MgCl2, 0.01% BSA, 0.0005% Tween-20, and 2% DMSO in the presence of 10 nM ITK, 2 nM Eu-anti-GST antibody, and 50 nM kinase tracer-236 using a 384-well plate format. Background signal is defined in the absence of ITK and uninhibited signal is defined in the presence of vehicle (2% DMSO) alone. Compounds were evaluated in an 11 point dose-response ranging from 20 uM to 0.34 nM. The binding assays are performed under two preincubation conditions to evaluate time dependence of inhibition. For the pre-incubation assay, ITK and Eu-anti-GST antibody are pre-incubated with compound or vehicle for two hours prior to the addition of kinase tracer. The non-preincubated assay is run under conditions where ITK and Eu-anti-GST antibody are added to a mixture of compound and kinase tracer. IC50 values of compounds are determined using a 4 parameter logistical fit of emission ratio as a function of the concentration of compound.

[1] = system: phospho-PLCγ1 in Jurkat cells; experiment: ITK target modulation PLC-γ assay (phospho-PLCγ1, αCD3-stimulated Jurkat cells); assay type: cell-based, human; conditions: Homo sapiens, 1 hour compound incubation, αCD3 Dynabeads stimulation 8 minutes, MSD phospho-PLCγ1, read-out: PLC-γ Inhibition IC50
Protocol: Jurkat cells, an immortalized human T-lymphocyte cell line, were maintained in RPMI media, 10% FBS, 1% pen/strep/glutamine (growth media). Cells were plated in growth media plus 50 μM β-mercaptoethanol at 400,000 cells per well of a 96 well plate.
Compounds were serially diluted into DMSO, and then into media to concentrations 10× that of the final assay concentration. Compounds were then added to the cells with the final assay DMSO concentration being 0.1%. Cells were incubated for 1 hour at 37° C.
Following compound incubation, αCD3 Dynabeads were added at 1 bead/cell to each assay well and incubated at 37° C. for 7 minutes. Unstimulated control wells received media only. The plate was then placed on a 96-well magnetic plate for an additional 60 seconds (total assay stimulation time equals 8 minutes). The plate was then dumped and gently patted dry on a paper towel. 50 μl of complete Meso Scale Discovery (MSD) Lysis buffer was then added to each well. Samples were assayed for phospho-PLCγ1 using Meso Scale Discovery technology.
The assay stimulation time has been optimized for detection of Itk kinase-mediated phosphorylation of PLCγ1. The timing and detection reagents for this assay could be adjusted to capture phosphorylation events upstream (e.g., phospho-ZAP70) or downstream of the Itk/PLCγ1 node, provided the appropriate phospho-specific antibodies are available for building of an MSD assay.

Chain of ITK (Q08881 whole entry): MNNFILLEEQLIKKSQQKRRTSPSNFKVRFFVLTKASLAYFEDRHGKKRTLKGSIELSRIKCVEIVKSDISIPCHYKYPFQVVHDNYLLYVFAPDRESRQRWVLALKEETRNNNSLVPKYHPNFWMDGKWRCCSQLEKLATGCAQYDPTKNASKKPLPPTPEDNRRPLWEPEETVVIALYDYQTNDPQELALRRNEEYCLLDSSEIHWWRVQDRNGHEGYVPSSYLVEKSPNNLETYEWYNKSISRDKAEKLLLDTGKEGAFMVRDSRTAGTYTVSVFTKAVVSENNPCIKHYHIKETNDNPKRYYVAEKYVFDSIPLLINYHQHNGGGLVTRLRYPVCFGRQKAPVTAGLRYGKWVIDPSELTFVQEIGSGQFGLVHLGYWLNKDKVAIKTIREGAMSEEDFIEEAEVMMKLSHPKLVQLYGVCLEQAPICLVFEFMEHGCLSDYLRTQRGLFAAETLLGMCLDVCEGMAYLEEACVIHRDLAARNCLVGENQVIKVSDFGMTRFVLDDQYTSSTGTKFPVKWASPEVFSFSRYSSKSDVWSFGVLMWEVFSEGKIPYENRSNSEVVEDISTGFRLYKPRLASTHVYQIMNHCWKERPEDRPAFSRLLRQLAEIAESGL

Compound | IC50 (ITK) | IC50 [1]
C=CC(=O)Nc1cc(-c2cnc3[nH]cc(-c4ccnc(OC)c4)c3c2)cc(N2CCOCC2)n1 [Example 41, N-(4-(3-(2-methoxypyridin-4-yl)-1H-pyrrolo[2,3-b]pyridin-5-yl)-6-morpholinopyri-din-2-yl)acrylamide] | ≤ 1000 nM | < 1000 nM
C=CC(=O)N[C@H]1CCCN(c2cnc3[nH]cc(-c4ccncc4)c3c2)C1 [Example 15, (S)-N-(1-(3-(pyridin-4-yl)-1H-pyrrolo[2,3-b]pyridin-5-yl)piperidin-3-yl)acrylamide] | ≤ 1000 nM | > 5000 nM
CN(C)C/C=C/C(=O)Nc1cccc(-c2cnc3[nH]cc(-c4ccnc5[nH]ccc45)c3c2)c1 [Example 89, (E)-N-(3-(1H,1′H-[3,4′-bipyrrolo[2,3-b]pyridin]-5-yl)phenyl)-4-(dimethylamino) but-2-enamide] | ≤ 1000 nM | < 1000 nM
C=CC(=O)Nc1cc(-c2cnc3[nH]cc(-c4ccnc(OC)c4)c3c2)cc(OC)n1 [Example 40, N-(6-methoxy-4-(3-(2-methoxypyridin-4-yl)-1H-pyrrolo[2,3-b]pyridin-5-yl)pyridin-2-yl)acrylamide] | ≤ 1000 nM | 
C=CC(=O)Nc1cncc(-c2cnc3[nH]cc(-c4ccncc4)c3c2)c1 [Example 16, N-(5-(3-(pyridin-4-yl)-1H-pyrrolo[2,3-b]pyridin-5-yl)pyridin-3-yl)acrylamide] | ≤ 1000 nM | 
C=CC(=O)Nc1cccc(-c2cnc3[nH]cc(-c4ccnc(OC)c4)c3c2)c1 [Example 6, N-(3-(3-(2-Methoxypyridin-4-yl)-1H-pyrrolo[2,3-b]pyridin-5-yl)phenyl)acrylamide] | ≤ 1000 nM | < 1000 nM
C=C(C)C(=O)Nc1cccc(-c2cnc3[nH]cc(-c4cccnc4)c3c2)c1 [Example 85, N-(3-(3-(pyridin-3-yl)-1H-pyrrolo[2,3-b]pyridin-5-yl)phenyl)meth-acrylamide] | ≤ 1000 nM | > 5000 nM
C=CC(=O)Nc1cccc(-c2cnc3[nH]cc(-c4ccc(C(=O)Nc5ccc(C(C)C)cc5)cc4)c3c2)c1 [Example 74, 4-(5-(3-acrylamidophen-yl)-1H-pyrrolo[2,3-b]pyridin-3-yl)-N-(4-isopropylphenyl) benzamide] | ≤ 1000 nM | < 1000 nM
C=CC(=O)NC1CN(c2cnc3[nH]cc(-c4ccc(OC)nc4)c3c2)C1 [Example 3, N-(1-(3-(6-Methoxypyridin-3-yl)-1H-pyrrolo[2,3-b]pyridin-5-yl)azetidin-3-yl)acrylamide] | ≤ 1000 nM | 
C=CC(=O)NC1CN(c2cnc3[nH]cc(-c4ccnc(OC)c4)c3c2)C1 [Example 2, N-(1-(3-(2-Methoxypyridin-4-yl)-1H-pyrrolo[2,3-b]pyridin-5-yl)azetidin-3-yl)acrylamide] | ≤ 1000 nM | 
C=CC(=O)Nc1cncc(-c2cnc3[nH]cc(-c4ccnc(F)c4)c3c2)c1 [Example 27, N-(5-(3-(2-fluoropyridin-4-yl)-1H-pyrrolo[2,3-b]pyridin-5-yl)pyridin-3-yl)acrylamide] | ≤ 1000 nM | 
C=CC(=O)Nc1cc(-c2cnc3[nH]cc(-c4cccnc4)c3c2)cc(C(F)(F)F)c1 [Example 59, N-(3-(3-(pyridin-3-yl)-1H-pyrrolo[2,3-b]pyridin-5-yl)-5-(trifluoromethyl)phenyl)acryl-amide] |  | < 1000 nM
N#CN[C@H]1CCN(c2cnc3[nH]cc(-c4ccncc4)c3c2)C1 [Example 18, (S)-N-(1-(3-(pyridin-4-yl)-1H-pyrrolo[2,3-b]pyridin-5-yl)pyrrolidin-3-yl)cyanamide] | ≤ 1000 nM | 
N#C/C(=C\c1cccc(-c2cnc3[nH]cc(-c4ccncn4)c3c2)c1)C(N)=O [Example 75, (E)-2-cyano-3-(3-(3-(pyrimidin-4-yl)-1H-pyrrolo[2,3-b]pyridin-5-yl)phenyl)acryl-amide] |  | > 5000 nM
C=CC(=O)Nc1cc(-c2cnc3[nH]cc(-c4ccnc(OC)c4)c3c2)cc(-c2cnn(C)c2)c1 [Example 80, N-(3-(3-(2-methoxypyridin-4-yl)-1H-pyrrolo[2,3-b]pyridin-5-yl)-5-(1-methyl-1H-pyrazol-4-yl)phenyl)acryl-amide] |  | < 1000 nM
C=CC(=O)Nc1cccc(-c2cnc3[nH]cc(-c4cc(OC)ncc4C)c3c2)c1 [Example 79, N-(3-(3-(2-methoxy-5-methylpyridin-4-yl)-1H-pyrrolo[2,3-b]pyridin-5-yl)phenyl)acryl-amide] |  | > 5000 nM
C=CC(=O)Nc1cccc(-c2cnc3[nH]cc(-c4ccncc4)c3c2)c1 [Example 7, N-(3-(3-(pyridin-4-yl)-1H-pyrrolo[2,3-b]pyridin-5-yl)phenyl)acrylamide] | > 1000 nM | 
C=CC(=O)Nc1cccc(-c2cnc3[nH]cc(-c4cccc5cnccc45)c3c2)c1 [Example 55, N-(3-(3-(isoquinolin-5-yl)-1H-pyrrolo[2,3-b]pyridin-5-yl)phenyl)acryl-amide] |  | > 5000 nM
C=CC(=O)Nc1cccc(-c2cnc3[nH]cc(-c4ccccc4C)c3c2)c1 [Example 42, N-(3-(3-(o-tolyl)-1H-pyrrolo[2,3-b]pyridin-5-yl)phenyl)acryl-amide] |  | 1000 to 5000 nM
C=CC(=O)Nc1cncc(-c2cnc3[nH]cc(-c4cn(C)c(=O)c5[nH]ccc45)c3c2)c1 [Example 73, N-(5-(3-(6-methyl-7-oxo-6,7-dihydro-1H-pyrrolo[2,3-c]pyridin-4-yl)-1H-pyrrolo[2,3-b]pyridin-5-yl)pyridin-3-yl)acrylamide] |  | > 5000 nM

Next, values leading:

IC50 (ITK) | IC50 [1] | Compound
≤ 1000 nM | 1000 to 5000 nM | C=CC(=O)N(C)c1cccc(-c2cnc3[nH]cc(-c4ccnc(OC)c4)c3c2)c1 [Example 21, N-(3-(3-(2-methoxypyridin-4-yl)-1H-pyrrolo[2,3-b]pyridin-5-yl)phenyl)-N-methylacrylamide]
≤ 1000 nM | > 5000 nM | COc1cc(-c2c[nH]c3ncc(-c4cccc(NC(=O)/C=C/CN5CCOCC5)c4)cc23)ccn1 [Example 38, (E)-N-(3-(3-(2-methoxypyridin-4-yl)-1H-pyrrolo[2,3-b]pyridin-5-yl)phenyl)-4-morpholinobut-2-enamide]
≤ 1000 nM | < 1000 nM | COc1cc(NC(=O)/C=C/CN(C)C)cc(-c2cnc3[nH]cc(-c4ccnc(OC)c4)c3c2)c1 [Example 76, (E)-4-(dimethylamino)-N-(3-methoxy-5-(3-(2-methoxypyridin-4-yl)-1H-pyrrolo[2,3-b]pyridin-5-yl)phenyl)but-2-enamide]
≤ 1000 nM | > 5000 nM | COc1cc(-c2c[nH]c3ncc(-c4cccc(NC(=O)/C(C#N)=C/C(C)C)c4)cc23)ccn1 [Example 87, (E)-2-cyano-N-(3-(3-(2-methoxypyridin-4-yl)-1H-pyrrolo[2,3-b]pyridin-5-yl)phenyl)-4-methylpent-2-enamide]
≤ 1000 nM | > 5000 nM | C=CC(=O)NC1CN(c2cnc3[nH]cc(-c4ccnc(F)c4)c3c2)C1 [Example 35, N-(1-(3-(2-fluoropyridin-4-yl)-1H-pyrrolo[2,3-b]pyridin-5-yl)azetidin-3-yl)acrylamide]
 | > 5000 nM | C=CC(=O)Nc1cccc(-c2cnc3[nH]cc(-c4cc(OC)nc(C(F)(F)F)c4)c3c2)c1 [Example 31, N-(3-(3-(2-methoxy-6-(trifluoromethyl)pyridin-4-yl)-1H-pyrrolo[2,3-b]pyridin-5-yl)phenyl)acryl-amide]
 | < 1000 nM | C=CC(=O)Nc1cccc(-c2cnc3[nH]cc(-c4ccc(=O)n(CC5CC5)c4)c3c2)c1 [Example 50, N-(3-(3-(1-(cyclopropyl-methyl)-6-oxo-1,6-dihydropyridin-3-yl)-1H-pyrrolo[2,3-b]pyridin-5-yl)phenyl)acryl-amide]
 | 1000 to 5000 nM | C=CC(=O)Nc1cccc(-c2cnc3[nH]cc(-c4cccc5[nH]ccc45)c3c2)c1 [Example 71, N-(3-(3-(1H-indol-4-yl)-1H-pyrrolo[2,3-b]pyridin-5-yl)phenyl)acryl-amide]
 | > 5000 nM | C=CC(=O)Nc1cc(C#N)cc(-c2cnc3[nH]cc(-c4ccncc4)c3c2)c1 [Example 19, N-(3-cyano-5-(3-(pyridin-4-yl)-1H-pyrrolo[2,3-b]pyridin-5-yl)phenyl)acryl-amide]
